In patent US20210030757A1, “METHOD OF TREATMENT AND COMPOSITIONS COMPRISING A DUAL P13K DELTA-GAMMA KINASE INHIBITOR AND A CORTICOSTEROID” (priority 2014, published 2021):

Key:
[1] = test system: human neutrophils from healthy volunteers; assay: CSE-induced IL-8 release in peripheral blood neutrophils from healthy non-smokers; assay type: cell-based; conditions: stimulus CSE 5%, 6 h, mean ± SEM; for IC50: Homo sapiens, Neutrophil, read-out: −log IC50 (IL-8 release) (converted)
Protocol: (§1) Neutrophils were isolated from peripheral venous blood by standard laboratory procedures. In brief, peripheral venous blood was mixed with dextran 500 at 3% (in 0.9% saline) in a proportion of 2:1. This mixture was incubated at room temperature for 30 min until erythrocytes were sedimented. The upper phase was carefully collected and added on Ficoll-Paque Histopaque 1077 (Amershan Pharmacia Biotech, Barcelona, Espana) density gradient in a proportion of 3:1. The two phases generated were centrifuged at 150 g, 4° C. for 30 min. Thus, the pellet obtained (which is consisted a mixture of neutrophils and low proportion of residual erythrocytes and traces of eosinophils and basophils) was resuspended in an erythrocyte lysis buffer (Biolegend, UK) for 5 min in ice. Cell suspension was washed two times with phosphate buffer (PBS). […] Neither purity nor viability was affected in the study's different experimental conditions.
(§2) CSE was prepared as follows: Briefly, the smoke of a research cigarette (2R4F; Tobacco Health Research, University of Kentucky, Ky., USA) was generated by a respiratory pump (Apparatus Rodent Respirator 680; Harvard, Germany) through a puffing mechanism related to the human smoking pattern (3 puff/min; 1 puff 35 ml; each puff of 2 s duration with 0.5 cm above the filter) and was bubbled into a flask containing 25 ml of pre-warmed (37° C.) Roswell Park Memorial Institute (RPMI)-1640 culture medium. The CSE solution was sterilized by filtration through a 0.22-μm cellulose acetate sterilizing system (Corning, N.Y.). The resultant CSE solution was considered to be 100% CSE and was used for experiments within 30 min of preparation. CSE 10% corresponds approximately to the exposure associated with smoking two packs per day. The quality of the prepared CSE solution was assessed based on the absorbance at 320 nm, which is the specific absorption wavelength of peroxynitrite. Stock solutions with an absorbance value of 3.0±0.1 were used. To test for cytotoxicity from CSE, isolated neutrophils were treated with CSE concentrations of up to 5% for […].
(§3) Isolated human neutrophils from healthy volunteers and COPD patients were incubated with Compound A (0.01 nM-100 μM) and Dexamethasone (0.1 nM-1 μM) or vehicle for 30 minutes before incubation with or without CSE 5% for 6 hours in standard cell culture conditions (37° C. and 5% CO2). Supernatants were collected to measure different inflammatory markers.
(§4) IL-8 was measured by ELISA using a commercially available kit.
(§5) Experiments were done in triplicate in […] three patients per experimental condition.
(§6) Neutrophils from healthy and COPD patients were stimulated with CSE 5% in the presence of Compound A (0.01 nM-100 μM) or dexamethasone (DEX; 0.1 nM-1 μM) for 6 h and IL-8 supernatants were measured.

[2] = test system: human neutrophils from COPD patients; assay: CSE-induced IL-8 release in peripheral blood neutrophils from COPD patients; assay type: cell-based; conditions: stimulus CSE 5%, 6 h, mean ± SEM; for IC50: Homo sapiens, Neutrophil, read-out: −log IC50 (IL-8 release) (converted)
Protocol: as §1, §2, §3, §4, §5, §6

[3] = test system: Balb/c mice; assay: Chronic cigarette smoke induced cell infiltration in male Balb/c mice (BALF cells and cytokines); assay type: in vivo
Protocol: Animals were acclimatized for seven days prior to the start of the experiment. Animals were randomly distributed to various groups based on their body weights. Mice were exposed to the mainstream smoke of 2 cigarettes from day 1 to day 11. Exposure to the smoke of each cigarette lasted for 10 min (each cigarette was completely burned in the first two minutes, followed by an air flow with animal ventilator) and were exposed for the next 20 min with fresh room air. After every second cigarette an additional break of 20 min with exposure to fresh room air was conducted. Control animals were exposed to the room air chamber. Test compound was administered by the intranasal route as suspension from day 12 to day 14 before 30 mins whole body smoke exposure. Mice were exposed to the mainstream smoke of 1 cigarette from day 12 to day 14. On day 15, 24 hours after the last cigarette smoke (CS) exposure animals were exsanguinated under anaesthesia, and the trachea was cannulated and the lungs were lavaged with 0.5 ml aliquots of heparinised PBS (1 unit/ml) four times through tracheal cannula (total volume 2 ml). Bronchioalveolar (BAL) collected was stored at 2-8° C. until assayed for total cell and differential leukocyte count. BAL fluid was centrifuged (500×g for 10 min) and the resulting cell pellet was resuspended in 0.5 ml of heparinised saline. The total number of white blood cells was determined in BAL fluid and blood using a blood cell counter and adjusted to 1×10^6 cell/ml. Differential cell count was calculated manually. Forty microliters of the cell suspension was centrifuged using cytospin 3 to prepare a cell smear. The cell smear was stained with a blood staining solution for differentiation and microscopically observed by identifying each cell according to its morphological characteristics. The number of each cell type among 300 white blood cells in the cell smear was determined and expressed as a percentage, and the number of neutrophils and macrophages in each BAL fluid were calculated. In addition BAL supernatant were analysed for various cytokinines using ELISA assay.

[4] = test system: Balb/c mice; assay: Reversal of corticosteroid insensitivity in chronic cigarette smoke induced cell infiltration in male Balb/c mice; assay type: in vivo; conditions: Mus musculus, Macrophage, inhaled or nasal; murine chronic COPD model; intranasal; read-out: ED50 (cell count in BAL, macrophage infiltration)
Protocol: Animals were acclimatized for seven days prior to the start of the experiment. Animals were randomly distributed to various groups based on their body weights. Mice were exposed to the mainstream smoke of 2 cigarettes from day 1 to day 11. Exposure to the smoke of each cigarette lasted for 10 min (each cigarette was completely burned in the first two minutes, followed by an air flow with animal ventilator) and were exposed for the next 20 min with fresh room air. After every second cigarette an additional break of 20 min with exposure to fresh room air was conducted. Control animals were exposed to the room air chamber. Corticosteroid, fluticasone was administered by intranasal route from day 6 to day 11 before 30 mins whole body smoke exposure. Mice were exposed to the mainstream smoke of 1 cigarette from day 12 to day 14. […] The total number of white blood cells was determined in BAL fluid and blood using a blood cell counter and adjusted to 1×10^6 cell/ml. Differential cell count was calculated manually. […] The number of each cell type among 300 white blood cells in the cell smear was determined and expressed as a percentage, and the number of neutrophils and macrophages in each BAL fluid were calculated. In addition BAL supernatant were analysed for various cytokines using ELISA assay.

[5] = test system: MIF; assay: MIF mRNA expression in peripheral neutrophils from COPD patients (RT-PCR); assay type: cell-based, human; conditions: CSE 5%; Compound A exposure
Protocol: (§7) Measurement of basal RNA expression of corticosteroid resistant mediators: Total RNA was isolated from peripheral human neutrophils from COPD patients in basal conditions and after experimental conditions. Cells were homogenized and RNA was extracted using TriPure® Isolation Reagent (Roche, Indianapolis, USA). The reverse transcription was performed in 300 ng of total RNA with TaqMan reverse transcription reagents kit (Applied Biosystems, Perkin-Elmer Corporation, CA, USA). 1.5 μl of result cDNA was amplified with specific predesigned primers (Applied Biosystems) for MIF (cat no Hs00236988), MKP-1 (cat no Hs00610256), PI3K-δ (cat n° Hs00192399), PI3Kγ (cat n° Hs00277090) and GAPDH (cat no 4310884E) as endogenous control in a 7900HT Fast Real-Time PCR System (Applied Biosystem) using Universal Master Mix (Applied Biosystems). Relative quantification of these different transcripts was determined with the 2^−ΔΔct method and normalized to control groups.
(§8) mRNA expression of the MIF, MKP-1, PI3K-δ and PI3Kγ genes was measured in basal conditions and at the end of the experiments.
(§9) Experiments were done in triplicate in at least three patients per experimental condition.

[6] = test system: MKP-1; assay: MKP-1 mRNA expression in peripheral neutrophils from COPD patients (RT-PCR); assay type: cell-based, human; conditions: CSE 5%; 10 nM or 100 nM Compound A
Protocol: as §7, §8, §9

[7] = test system: PI3Kγ; assay: PI3Kγ mRNA expression in peripheral neutrophils from COPD patients (RT-PCR); assay type: cell-based, human; conditions: CSE 5%; 10 nM or 100 nM Compound A
Protocol: as §7, §8, §9

[8] = test system: PI3K; assay: PI3K activity (PIP3 production, PI3-Kinase Activity ELISA) in neutrophils from COPD patients; assay type: cell-based, human; conditions: Compound A 10 nM, 1 h, CSE 5% 30 min
Protocol: Measurement of Pi3K isoforms: To measure PI3K activity, neutrophils from COPD patients were isolated and incubated with Compound A at 10 nM for 1 h. Then cells were stimulated with CSE 5% for 30 min. After cell stimulation, neutrophils were centrifuged and total protein was extracted from neutrophils. Total protein amount was measured using The Bio-Rad assay (Bio-Rad Laboratories Ltd., Herts, UK) to ensure equal amount. PI3K activity was measured using the PI3-Kinase Activity ELISA: Pico (cat. no k-1000 s, Echelon Bioscience, Salt Lake City, USA) according to the manufacturer's protocol. In brief, PI3-K reactions were run with the Class I PI3-K physiological substrate PI(4,5)P2 (PIP2). The enzyme reactions, PIP3 standards and controls were then mixed and incubated with PIP3 binding protein that is highly specific and sensitive to PIP3. This mixture was then transferred to a PIPI3-coated microplate for competitive binding. Afterwards, a peroxidase-linked secondary detector and colorimetric detection was used to detect the amount of PIP3 produced by PI3-K through comparing the enzyme reactions with a PIP3 standard curve.
as §9

## C[C@@H]1C[C@H]2[C@@H]3CCC4=CC(=O)C=C[C@]4(C)[C@@]3(F)[C@@H](O)C[C@]2(C)[C@@]1(O)C(=O)CO [dexamethasone, reference compound]
[1]
  IC50: 14.1 nM
  Maximal % Inhibition of IL-8 release: 83.9%
[2]
  IC50: 13.5 nM
  Maximal % Inhibition of IL-8 release: 19.84 ± 11.46 %

## CC(C)Oc1ccc(-c2nn([C@@H](C)c3oc4cccc(F)c4c(=O)c3-c3cccc(F)c3)c3ncnc(N)c23)cc1F [Compound A]
[3]; 0.003-3 mg/kg intranasal, day 12 to 14, vs disease controls
  Macrophage count in BAL fluid: significantly reduced toward normal
[3]; dose 0.003 mg/kg intranasal
  IFNγ in BALF (% inhibition): 0%
  IL-6 in BALF (% inhibition): 11%
  IL-12/IL-23 in BALF (% inhibition): 0%
  TNFα in BALF (% inhibition): 17%
[3]; dose 0.03 mg/kg intranasal
  IFNγ in BALF (% inhibition): 25%
  IL-6 in BALF (% inhibition): 44%
  IL-12/IL-23 in BALF (% inhibition): 0%
  TNFα in BALF (% inhibition): 40%
[3]; dose 0.3 mg/kg intranasal
  IFNγ in BALF (% inhibition): 90%
  IL-6 in BALF (% inhibition): 99%
  IL-12/IL-23 in BALF (% inhibition): 100%
  TNFα in BALF (% inhibition): 99%
[4]
  ED50: 0.093 mg/kg
[1]
  IC50: 295 nM
  Maximal % Inhibition of IL-8 release: 97.4±5.3%
[2]
  IC50: 47.9 nM
  Maximal % Inhibition of IL-8 release: 85.14%
[5]
  expression of MIF (mRNA): not significantly affected
[6]
  expression of MKP1 (mRNA): increased the expression of MKP1 near to control levels
[7]
  CSE induced PI3Kγ expression (mRNA): significant reduction
[8]
  PI3K activity measured as PIP3 production: completely suppressed
